This is an account of results in US10786575B2, “Self-emulsifying composition of Ω3 fatty acid” (priority 2015, dated 2020).

Read-outs that look alike come from different tables or passages of the source.

Data set [1] in a line: Test Example 5: pharmacokinetics in beagles (plasma EPA, LC/MS/MS). Also noted: species or system male beagles. The settings on record: dog, in vivo, po, 600 mg. As to the method: The produced compositions or capsules (Examples 1, 3 and 5) were each orally administered to 6 male beagles (at the age of 2 to 6 years with the body weight of 8 to 13 kg, 3 Marshall beagles and 3 Nosan beagles) under fasting conditions, and blood EPA concentration was evaluated. […] The control group was administered with the EPA-E stock solution encapsulated in a capsule.

For data set [2] the following is noted: human, in vivo, po, 1800 mg.
Description: (§1) The capsule having the self-emulsifying composition of the present invention containing 80% by weight of EPA-E as its content was orally administered to human (12 cases, healthy adult males of 20 to 40 years old with a body weight of 55.0 to 77.0 kg and a BMI of 18.5 or more but less than 25.0) under fasting conditions to evaluate the change of blood EPA concentration. The self-emulsifying composition in an amount corresponding to 1800 mg of EPA-E was orally administered in single dose to each human who had been fasted since 10 hours or more before the administration by using 200 mL of water in the morning under fasting. The blood was collected 0.5, 1, 1.5, 2, 3, 4, 5, 6, 7, 8, 9, 10, 12, 15, 18, 24, 48 and 72 hours after the administration. Immediately after the collection, the blood was cooled on ice, and centrifuged at 2000×g at 4° C. for 10 minutes to separately collect the plasma. After having stored the resulting plasma at a temperature not higher than −20° C. in frozen state, concentration of the EPA in the plasma was measured by LC/MS/MS (method in which a sample is isolated by liquid chromatography, then subjected to mass spectrometry to conduct separation and measurement thereon).
(§2) The capsule having the self-emulsifying composition of the present invention containing 80% by weight of EPA-E as its content was also orally administered to human immediately after meals, and the measurement was conducted by repeating the procedure as described above.
(§3) For the control group, the EPA-E stock solution (high purity EPA-E (at least 96.5% by weight) containing no emulsifier or the like and used with the same EPA-E amount as that of the self-emulsifying composition of the present invention; the same applying hereafter) filled in the capsule was orally administered to human (12 cases, healthy adult males of 20 to 40 years old with a body weight of 55.0 to 77.0 kg and a BMI of 18.5 or more but less than 25.0) under fasting conditions (fasting since at least 10 hours before the administration), and the measurement was conducted by repeating the procedure as described above.
In the calculation of each parameter, correction was made by subtracting the blood EPA concentration before the administration from the measured blood concentration.
For data set [3] the following is noted: human, in vivo, po, 3600 mg.
Description: as §1, §2, §3
This test was conducted on 6 humans. […] In the calculation of each parameter, correction was made by subtracting the blood EPA concentration before the administration from the measured blood concentration.

A word on the Cmax: it is the maximum level reached in the sampled fluid or tissue. By Tmax is commonly meant the time at which the peak concentration occurs. Broadly, the t½ is the time needed for the level to fall by half in the phase considered. In data set [1], `CC/C=C\C/C=C\C/C=C\C/C=C\C/C=C\CCCC(=O)OCC` [Comp. Ex. 5, Ethyl eicosapentaenoate] had an AUC0-1 of 11300 ng·h/mL, an AUC0-26 of 76600 ng·h/mL and a Cmax of 18400 ng/mL. Besides, in data set [2], the AUC0-72 hr came to 113100 ng·h/mL, the Cmax was 4600 ng/mL, the Tmax turned out to be 10.8 h and the t½ came to 71.7 h. Moreover, in data set [3], the AUC0-72 hr came out at 113700 ng·h/mL, the maximum concentration (Cmax) turned out to be 3600 ng/mL, the time of peak concentration (Tmax) came out at 21.8 h and the t½ turned out to be 22.8 h.
